Reference: patent US5340807A, “Tricyclic compounds and intermediates thereof” (priority 1991, dated 1994)

Key:
male ddy strain mice = test: Test for acute toxicity (minimum lethal dose, oral); type: in vivo; settings: mortality observed seven days after administration
Method: Groups of 3 male ddy strain mice weighing 20±1 g were used. The test compounds were orally administered. Seven days after administration, the mortality was observed and the minimum lethal dose (MLD) was determined.

[1] = system: acyl coenzyme A: cholesterol acyltransferase (ACAT); test: Test for ACAT inhibitory activity (microsome fraction prepared from rabbit liver); type: biochemical; settings: 10^-6 M, 37° C., 10 minutes
Method: Test for ACAT inhibitory activity The test for ACAT inhibitory activity was performed by a modified method of the method of Brecher et al. Biochim. Biophys. […] The radioactivity of the cholesterol ester spot was determined by a liquid scintillation counter. The radio-activity for each test compound was calculated by the difference between the radioactivity with the microsome fraction and the radioactivity without the microsome fraction. The radioactivity of control was determined in a similar manner without any test compound.

serum cholesterol level = test: Inhibition effect on serum cholesterol level in hamster with dietary hyperlipemia; type: in vivo; settings: Golden hamster, 2% cholesterol feed for 3 days; 30 mg/kg orally once a day
Method: Inhibition effect on serum cholesterol level in hamster with dietary hyperlipemia
Golden hamster (SLC, male, age of 6 weeks) was made free access to feed containing 2% cholesterol for 3 days. Each test compound was suspended in olive oil and orally administered once a day in a dose of 30 mg/kg during the feeding. (A: Test Group administered with the test compound, B: Control Group administered with olive oil only). In Group C, feed free from cholesterol was fed for 3 days. On the fourth day, blood sample was collected from the descending aorta under pentobarbital anesthesia and cholesterol level in serum was determined. The total cholesterol level in serum of each group was determined and the inhibition rate for the test compound was calculated according to the following equation. [formula]

Structure (SMILES) | Acute Toxicity (MLD), minimum lethal dose (male ddy strain mice) [mg/kg] | Inhibiting rate(%) of ACAT [1] [%] | Inhibition Rate (%) of total cholesterol level in serum (serum cholesterol level) [%]
CC(C)c1cccc(C(C)C)c1NC(=O)C1c2ccccc2COc2ccc(C#N)cc21 (stereo not drawn) [Compound 23, 2-Cyano-6,11-dihydro-N-(2,6-diisopropylphenyl)dibenz[b,e]-oxepin-11-carboxamide] | > 300 | 69 | 
CC(C)c1cccc(C(C)C)c1NC(=O)C1c2ccccc2COc2ccc(Br)cc21 (stereo not drawn) [Compound 18, 2-Bromo-6,11-dihydro-N-(2,6-diisopropylphenyl)dibenz[b,e]-oxepin-11-carboxamide] | > 300 | 100 | 114
CC(C)c1cccc(C(C)C)c1NC(=O)C1c2ccccc2COc2ccc(F)cc21 (stereo not drawn) [Compound 16, 2-Fluoro-6,11-dihydro-N-(2,6-diisopropylphenyl)dibenz[b,e]-oxepin-11-carboxamide] | > 300 | 81 | 
Cc1ccc2c(c1)C(C(=O)Nc1ccccc1C(C)C)c1ccccc1CO2 (stereo not drawn) [Compound 5, 6,11-Dihydro-N-(2-isopropylphenyl)-2-methyldibenz[b,e]-oxepin-11-carboxamide] | > 300 | 56 | 
COC(=O)c1ccc2c(c1)C(C(=O)Nc1c(C(C)C)cccc1C(C)C)c1ccccc1CO2 (stereo not drawn) [Compound 24, 6,11-Dihydro-N-(2,6-diisopropylphenyl)-2-methoxycarbonyl-dibenz[b,e]oxepin-11-carboxamide] | > 300 | 90 | 
O=C(Nc1c(Cl)cccc1Cl)C1c2ccccc2COc2cc(Br)ccc21 (stereo not drawn) [Compound 28, 3-Bromo-N-(2,6-dichlorophenyl)-6,11-dihydrodibenz[b,e]oxepin-11-carboxamide] | > 300 | 52 | 
CC(C)c1cccc(C(C)C)c1NC(=O)C1c2ccccc2CSc2ccc(Br)cc21 (stereo not drawn) [Compound 32, 2-Bromo-6,11-dihydro-N-(2,6-diisopropylphenyl)dibenzo[b,e]-thiepin-11-carboxamide] | > 300 | 88 | 67
CCc1cccc(CC)c1NC(=O)C1c2ccccc2COc2ccc(C)cc21 (stereo not drawn) [Compound 3, N-(2,6-Diethylphenyl) -6,11-dihydro-2-methyldibenz[b,e]-oxepin-11-carboxamide] | > 300 | 77 | 
Cc1cc(Br)c2c(c1)C(C(=O)Nc1c(C(C)C)cccc1C(C)C)c1ccccc1CO2 (stereo not drawn) [Compound 21, 4-Bromo-6,11-dihydro-N-(2,6-diisopropylphenyl) -2-methyldibenz[b,e]oxepin-11-carboxamide] |  |  | 67
CC(C)c1cccc(C(C)C)c1NC(=O)C1c2ccccc2COc2ccc(C(F)(F)F)cc21 (stereo not drawn) [Compound 20, 6,11-Dihydro-N-(2,6-diisopropylphenyl) -2-trifluoromethyldibenz[b,e]oxepin-11-carboxamide] | > 300 | 84 | 63
CC(C)c1cccc(C(C)C)c1NC(=O)C1c2ccccc2COc2cc(Br)ccc21 (stereo not drawn) [Compound 29, 3-Bromo-6,11-dihydro-N-(2,6-diisopropylphenyl)dibenz[b,e]-oxepin-11-carboxamide] | > 300 | 86 | 
Cc1cc(Cl)c2c(c1C)C(C(=O)Nc1c(C(C)C)cccc1C(C)C)c1ccccc1CO2 (stereo not drawn) [Compound 59, 4-Chloro-6,11-dihydro-N-(2,6-diisopropylphenyl)-1,2-dimethyldibenz[b,e]oxepin-11-carboxamide] |  | 100 | 
CC(C)c1cccc(C(C)C)c1NC(=O)C1c2ccccc2COc2c1cc(Br)cc2N(C)C.Cl (stereo not drawn) [Compound 55, 2-Bromo-6,11-dihydro-N-(2,6-diisopropylphenyl)-4-dimethylaminodibenz[b,e]oxepin-11-carboxamide hydrochloride] |  | 100 | 
CC(C)c1cccc(C(C)C)c1NC(=O)C1c2ccccc2COc2ccc(Cl)cc21 (stereo not drawn) [Compound 17, 2-Chloro-6,11-dihydro-N-(2,6-diisopropylphenyl)dibenz[b,e]-oxepin-11-carboxamide] | > 300 | 94 | 
CCc1cccc(CC)c1NC(=O)C1c2ccccc2COc2ccc(Br)cc21 (stereo not drawn) [Compound 27, 2-Bromo-N-(2,6-diethylphenyl)-6,11-dihydrodibenz[b,e]oxepin-11-carboxamide] | > 300 | 80 | 
Cc1ccc2c(c1)C(C(=O)Nc1c(C(C)C)cccc1C(C)C)c1ccccc1CO2 (stereo not drawn) [Compound 4, 6,11-Dihydro-N-(2,6-diisopropylphenyl)-2-methyldibenz[b,e]-oxepin-11-carboxamide] | > 300 | 98 | 70
O=C(Nc1c(Cl)cccc1Cl)C1c2ccccc2COc2ccc(Br)cc21 (stereo not drawn) [Compound 39, 2-Bromo-N-(2,6-dichlorophenyl)-6,11-dihydrodibenz[b,e]oxepin-11-carboxamide] |  | 91 | 
Cc1ccc(C)c2c1OCc1ccccc1C2C(=O)Nc1c(C(C)C)cccc1C(C)C (stereo not drawn) [Compound 49, 6,11-Dihydro-N-(2,6-diisopropylphenyl)-1,4-dimethyldibenz[b,e]oxepin-11-carboxamide] |  | 97 | 
CCc1cccc(CC)c1NC(=O)C1c2ccccc2COc2cc(C)c(Br)c(C)c21 (stereo not drawn) [Compound 57, 2-Bromo-N-(2,6-diethylphenyl)-6,11-dihydro-1,3-dimethyldibenz[b,e]oxepin-11-carboxamide] |  | 98 | 
